Reference: patent publication EP1038880B1, “Androstanes and pregnanes for allosteric modulation of GABA receptor” (priority 1994, dated 1995)

Molecular target: GR complex
Assay: [35S]TBPS binding assay (inhibition of [35S]TBPS binding, cerebral cortex P2 homogenate)
Design: species or system rat
Details: for IC50: 2 nM [35S]TBPS, rat cerebral cortex P2 homogenate; for IMAX: maximum inhibition of [35S]TBPS binding
Protocol: We performed several experiments to determine the nature of the modulation of [^35S]TBPS as affected by the compounds of the invention.
These procedures were performed as follows:
Brains from male Sprague-Dawley rats were removed immediately following sacrifice and the cerebral cortices dissected over ice. […] Briefly, the cortices were gently homogenized in 0.32 M sucrose followed by centrifugation at 1000 x g for 10 minutes. The supernatant was collected and centrifuged at 9000 x g for 20 minutes. The resultant P2 pellet was suspended as a 10% (original wet weight/volume) suspension in 50 mM Na/K phosphate buffer (pH 7.4) 200 mM NaCl to form the homogenate.
One hundred microliter […] aliquots of the P2 homogenate (0.5 milligrams (mg) protein) were incubated with 2 nanomolar (nM) [^35S]TBPS (70-110 curies/millimole; New England Nuclear, Boston, MA) in the presence or absence of the naturally occurring steroids or their synthetic derivatives to be tested. The tested compounds were dissolved in dimethylsulfoxide (Baker Chem. Co., Phillipsbury, NJ) and added to the incubation mixture in 5 µL aliquots. The incubation mixture was brought to a final volume of 1 mL with buffer. Non-specific binding was defined as binding in the presence of […] TBPS. The effect and specificity of GABA (Sigma Chem. Co., St. Louis, MO) was evaluated by performing all assays in the presence of GABA plus (+)bicuculline (Sigma Chem. Co.). maintained at 25°C for 90 minutes (steady state conditions) were terminated by rapid filtration through glass fiber filters (No. 32, Schleicher and Schuell, Keene, NH). Filter-bound radioactivity was quantitated by liquid scintillation spectrophotometry.
Various compounds were screened to determine their potential as modulators of [^35S]TBPS binding in vitro. These assays were performed in accordance with the above discussed procedures. […] It is an indication of a compound's in vitro potency. Maximum inhibition is an indication of a compound's in vitro efficacy.

SMILES	IC50 [µM]	IMAX [%]
CC(=O)[C@H]1CC[C@H]2[C@@H]3CC[C@@H]4C[C@@](O)(CCCc5ccccc5)CC[C@]4(C)[C@H]3CC[C@]12C [3α-Hydroxy-3β-(3'-phenylpropyl)-5β-pregnan-20-one]	0.173	92
CC12CCC(O)(C#CCCO)CC1CCC1C2CCC2(C)C(C(=O)Cn3cncn3)CCC12 (stereo not drawn) [3α-hydroxy-3β-(4-hydroxybutyn-1-yl)-21-(1,2,4-triazol-1-yl)-5β-pregnan-20-one]	–	96
CC1(O)CCC2(C)C(CCC3C2CCC2(C)C(C(=O)Cn4nccn4)CCC32)C1 (stereo not drawn) [3α-hydroxy-3β-methyl-21(2'H-1',2',3'-triazol-2'-yl)-5α-pregnan-20-one]	0.085	99
C[C@]12CC[C@](O)(C#CCCO)C[C@H]1CC[C@@H]1[C@@H]2CC[C@]2(C)[C@@H](C(=O)Cn3ccnc3)CC[C@@H]12 [3α-Hydroxy-3β-(4-hydroxybutyn-1-yl)-21-(1-imidazolyl)-5β-pregnan-20-one]	0.054	93
CC(=O)[C@H]1CC[C@H]2[C@@H]3CC[C@@H]4C[C@@](O)(C#Cc5ccc(N(C)C)cc5)CC[C@]4(C)[C@H]3CC[C@]12C [3β-(4'-dimethylaminophenyl)ethynyl-3α-hydroxy-5β-pregnan-20-one]	0.028	77
CC(=O)[C@H]1CC[C@H]2[C@@H]3CC[C@@H]4C[C@@](O)(C#Cc5c(F)c(F)c(F)c(F)c5F)CC[C@]4(C)[C@H]3CC[C@]12C [3β-(pentafluorophenylethynyl)-3α-hydroxy-5β-pregnan-20-one]	0.079	69
CC(=O)C1CCC2C3CCC4CC(O)(C#CCn5cncn5)CCC4(C)C3CCC12C (stereo not drawn) [3α-Hydroxy-3β-[3'-(1H-1,2,4,-triazol-1yl)-1'-propynyl]-5β-pregnan-20-one]	0.843	99
C[C@]12CC[C@@H](O)C[C@H]1CC[C@@H]1[C@@H]2CC[C@]2(C)[C@@H](C(=O)Cn3cncn3)CC[C@@H]12 [3α-Hydroxy-21-(1',2',4'-triazol-1-yl)-5β-pregnan-20-one]	–	60
CC(=O)C#C[C@@]1(O)CC[C@@]2(C)[C@H](CC[C@@H]3[C@@H]2CC[C@]2(C)[C@@H](C(C)=O)CC[C@@H]32)C1 [3α-Hydroxy-3β-(3'-oxobutynyl)-5β-pregnan-20-one]	2.69	107
CC(=O)C1CCC2C3CCC4CC(O)(C#CCCO)CCC4C3CCC12C (stereo not drawn) [3β-(4'-hydroxy-1'-butynyl)-3α-hydroxy-5β-19-norpregnan-20-one]	0.022	102
C#C[C@@]1(O)CC[C@@]2(C)[C@H](CC[C@@H]3[C@@H]2CC[C@]2(C)[C@@H](C(=O)Cn4cncn4)CC[C@@H]32)C1 [3β-ethynyl-3α-hydroxy-21-(1',2',4'-triazoyl)-5β-pregnan-20-one]	0.127	98
CC(=O)C1CCC2C3CCC4CC(O)(C#CC=O)CCC4(C)C3CCC12C (stereo not drawn) [3α-Hydroxy-3β-(3'-oxopropynyl)-5β-pregnan-20-one]	1.72	76
CC12CCC(O)(C#CCO)CC1CCC1C2CCC2(C)C(C(=O)Cn3ccnn3)CCC12 (stereo not drawn) [3α-hydroxy-3β-(3-hydroxypropyn-1-yl)-21-(1,2,3-triazol-1-yl)-5β-pregnan-20-one]	1.09	101
CC(=O)[C@H]1CC[C@H]2[C@@H]3CC[C@@H]4C[C@@](O)(C#CCCC(N)=O)CC[C@]4(C)[C@H]3CC[C@]12C [3β-(4'-Carboxamidobutynyl)-3α-hydroxy-5β-pregnan-20-one]	2.34	102
C[C@]12CC[C@@H](O)C[C@@H]1CC[C@@H]1[C@@H]2CC[C@]2(C)[C@@H](C(=O)Cn3ccc(=O)[nH]c3=O)CC[C@@H]12 [3α-Hydroxy-21-(1'-uracil)-5α-pregnan-20-one]	0.434	90
CCOC(=O)c1ccc(C#C[C@@]2(O)CC[C@@]3(C)[C@H](CC[C@@H]4[C@@H]3CC[C@]3(C)[C@@H](C(C)=O)CC[C@@H]43)C2)cc1 [3α-hydroxy-3β-(4'-carboxyphenylethynyl)-5β-pregnan-20-one ethyl ester]	–	98
CC(=O)[C@H]1CC[C@H]2[C@@H]3CC[C@@H]4C[C@@](O)(C#Cc5ccncc5)CC[C@]4(C)[C@H]3CC[C@]12C [3α-Hydroxy-3β-(4-pyridyl)ethynyl-5β-pregnan-20-one]	0.149	103

SMILES	IC50 [µM]	IMAX [%]
CCOC(=O)c1ccc(C#CC2(O)CCC3(C)C(CCC4C3CCC3(C)C(C(C)=O)CCC43)C2)cc1 (stereo not drawn) [3β-(4'-Carboxyphenylethynyl)-3α-hydroxy-5α-pregnan-20-one ethyl ester]	0.007	79
C[C@]12CC[C@@H](O)C[C@H]1CC[C@@H]1[C@@H]2CC[C@]2(C)[C@@H](C(=O)Cn3ncnn3)CC[C@@H]12 [3α-Hydroxy-21-(2'H-1,2,3,4-tetrazol-2'-yl)-5β-pregnan-20-one]	0.046	78
C[C@]12CC[C@](O)(C#CCCO)C[C@H]1CC[C@@H]1[C@@H]2CC[C@]2(C)[C@@H](C(=O)Cn3ccnn3)CC[C@@H]12 [3α-hydroxy-3β-(4-hydroxybutyn-1-yl)-21-(1,2,3-triazol-1-yl)-5β-pregnan-20-one]	0.079	96
CC(=O)[C@H]1CC[C@H]2[C@@H]3CC[C@@H]4C[C@@](O)(C#CCCCC(N)=O)CC[C@]4(C)[C@H]3CC[C@]12C [3β-(5'-Carboxamidopentynyl)-3α-hydroxy-5β-pregnan-20-one]	3.09	102
CC(=O)[C@H]1CC[C@H]2[C@@H]3CC[C@@H]4C[C@@](O)(C#Cc5ccc(F)cc5F)CC[C@]4(C)[C@H]3CC[C@]12C [3β-(2', 4'-difluorophenylethynyl)-3α-hydroxy-5β-pregnan-20-one]	0.109	102
CC(=O)[C@H]1CC[C@H]2[C@@H]3CC[C@@H]4C[C@@](O)(C#Cc5ccccc5)CC[C@]4(C)[C@H]3CC[C@]12C [3α-hydroxy-3β-phenylethynyl-5β-pregnan-20-one]	0.098	101
C[C@]12CC[C@@H]3c4ccc(O)cc4CC[C@H]3[C@@H]1CC[C@@H]2O [17β-Estradiol, reference compound]	–	0
C[C@]12C[C@H](O)[C@H]3[C@@H](CCC4=CC(=O)CC[C@@]43C)[C@@H]1CC[C@@H]2C(=O)CO [4-Pregnen-11β,21-diol-3,20-dione, reference compound]	> 1000	30
CC(=O)CCC#C[C@@]1(O)CC[C@@]2(C)[C@H](CC[C@@H]3[C@@H]2CC[C@]2(C)[C@@H](C(C)=O)CC[C@@H]32)C1 [3α-Hydroxy-3β-[5-oxo-1-hexynyl]-5β-pregnan-20-one]	0.118	101
CC(=O)[C@H]1CC[C@H]2[C@@H]3CC[C@H]4C[C@@H](O)CC[C@]4(C)[C@H]3CC[C@]12C [3β-Hydroxy-5α-pregnan-20-one, reference compound]	> 1000	33
CC12CCC(O)CC1CCC1C2CCC2(C)C(C(=O)Cn3ccnc3C=O)CCC12 (stereo not drawn) [3α-hydroxy-21-[1H-(2'-formyl)imidazol-1-yl]-5-pregnan-20-one]	0.213	81
CC(=O)c1cccc(C#C[C@@]2(O)CC[C@@]3(C)[C@H](CC[C@@H]4[C@@H]3CC[C@]3(C)[C@@H](C(C)=O)CC[C@@H]43)C2)c1 [3β-(3'-Acetylphenylethynyl)-3α-hydroxy-5β-pregnan-20-one]	0.062	100
CC(=O)[C@H]1CC[C@H]2[C@@H]3CC[C@@H]4C[C@@](O)(C#Cc5ccc(C(N)=O)cc5)CC[C@]4(C)[C@H]3CC[C@]12C [3β-(4'-Carboxamidopheny)ethynyl-3α-hydroxy-5β-pregnan-20-one]	2.24	98
CC(=O)[C@H]1CC[C@H]2[C@@H]3CC[C@H]4C[C@@](O)(C#CCC(C)O)CC[C@]4(C)[C@H]3CC[C@]12C (mixture of isomers) [3β-[4'(R/S)-hydroxy-1'-pentynyl]-3α-hydroxy-5α-pregnan-20-one]	0.178	101
CC(=O)[C@H]1CC[C@H]2[C@@H]3CC[C@@H]4C[C@@](O)(C#Cc5ccc([N+](=O)[O-])cc5)CC[C@]4(C)[C@H]3CC[C@]12C [3β-(4'-Nitrophenylethynyl)-3α-hydroxy-5β-pregnan-20-one]	0.046	103
Cc1nccn1CC(=O)[C@H]1CC[C@H]2[C@@H]3CC[C@@H]4C[C@H](O)CC[C@]4(C)[C@H]3CC[C@]12C [3α-hydroxy-21-[1H-(2-methyl)imidazol-1-yl)-5β-pregnan-20-one]	0.222	95
CCN(CC)C(=O)c1ccc(C#CC2(O)CCC3(C)C(CCC4C3CCC3(C)C(C(C)=O)CCC43)C2)cc1 (stereo not drawn) [3β-[4'-(N,N-diethylcarboxamido)phenyl]ethynyl-3α-hydroxy-5β-pregnan-20-one]	0.087	94
